From patent US20130131043A1, “PYRAZOLE COMPOUNDS AS JAK INHIBITORS” (priority 2010, published 2013)

Assays:
[1] = biological target: T1, JAK3 (Homo sapiens, UniProt P52333); assay: Kinobeads assay, JAK3 (competition binding in cell lysate, dot blot detection); conditions: mixed Molt4/Ramos lysate
T1 construct: endogenous in cells; host or cells: Molt4 (ATCC CRL-1582) and Ramos (ATCC CRL-1596) cell lysate; mixed Molt4/Ramos lysate 1:2
T1 sequence (P52333 1-1124): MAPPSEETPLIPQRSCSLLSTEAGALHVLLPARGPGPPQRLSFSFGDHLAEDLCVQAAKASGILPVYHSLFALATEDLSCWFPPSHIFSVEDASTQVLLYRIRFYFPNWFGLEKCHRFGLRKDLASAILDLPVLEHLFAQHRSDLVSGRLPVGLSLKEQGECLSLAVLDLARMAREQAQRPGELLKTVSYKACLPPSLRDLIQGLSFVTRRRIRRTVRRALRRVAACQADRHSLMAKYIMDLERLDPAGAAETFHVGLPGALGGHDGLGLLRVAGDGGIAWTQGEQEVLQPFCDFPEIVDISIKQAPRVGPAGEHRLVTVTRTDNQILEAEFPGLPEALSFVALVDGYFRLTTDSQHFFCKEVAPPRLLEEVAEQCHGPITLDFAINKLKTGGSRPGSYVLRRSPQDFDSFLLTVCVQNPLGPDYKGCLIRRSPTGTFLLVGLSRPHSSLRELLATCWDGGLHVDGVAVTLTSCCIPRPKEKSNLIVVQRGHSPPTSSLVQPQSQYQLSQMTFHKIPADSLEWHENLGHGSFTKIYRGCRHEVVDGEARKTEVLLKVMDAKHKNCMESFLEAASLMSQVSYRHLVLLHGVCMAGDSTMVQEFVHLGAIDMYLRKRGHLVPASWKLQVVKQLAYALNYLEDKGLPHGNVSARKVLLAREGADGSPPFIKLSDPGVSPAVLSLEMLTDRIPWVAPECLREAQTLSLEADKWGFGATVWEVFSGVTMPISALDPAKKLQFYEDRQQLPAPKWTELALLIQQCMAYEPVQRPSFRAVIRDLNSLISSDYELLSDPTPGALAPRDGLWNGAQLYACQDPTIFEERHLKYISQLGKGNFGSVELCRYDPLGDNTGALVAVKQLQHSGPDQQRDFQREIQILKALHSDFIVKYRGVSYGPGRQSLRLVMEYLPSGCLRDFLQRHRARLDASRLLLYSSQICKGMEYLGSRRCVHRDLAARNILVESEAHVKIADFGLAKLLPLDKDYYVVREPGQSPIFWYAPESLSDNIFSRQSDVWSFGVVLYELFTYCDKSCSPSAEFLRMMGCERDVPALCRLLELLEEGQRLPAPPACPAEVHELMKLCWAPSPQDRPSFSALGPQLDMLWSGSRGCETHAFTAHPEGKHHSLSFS
Method: (§1) The compounds of the present invention as described in the previous examples were tested in a Kinobeads™ assay as described for ZAP-70 (WO-A 2007/137867). Briefly, test compounds (at various concentrations) and the affinity matrix with the immobilized aminopyrido-pyrimidine ligand 24 were added to cell lysate aliquots and allowed to bind to the proteins in the lysate sample. After the incubation time the beads with captured proteins were separated from the lysate. Bound proteins were then eluted and the presence of JAK2 and JAK3 was detected and quantified using specific antibodies in a dot blot procedure and the Odyssey infrared detection system. Dose response curves for individual kinases were generated and IC50 values calculated. Kinobeads™ assays for ZAP-70 (WO-A 2007/137867) and for kinase selectivity profiling (WO-A 2006/134056) have been previously described.
(§2) 5×DP buffer: 250 mM Tris-HCl pH 7.4, 25% Glycerol, 7.5 mM MgCl2, 750 mM NaCl, 5 mM Na3VO4; filter the 5×DP buffer through a 0.22 μm filter and store in aliquots at −80° C. The 5×DP buffer is diluted with H2O to 1×DP buffer containing 1 mM DTT and 25 mM NaF.
(§3) Stock solutions of test compounds were prepared in DMSO. In a 96 well plate 30 μL solution of diluted test compounds at 5 mM in DMSO were prepared. Starting with this solution a 1:3 dilution series (9 steps) was prepared. For control experiments (no test compound) a buffer containing 2% DMSO was used.
(§4) Molt4 cells (ATCC catalogue number CRL-1582) and Ramos cells (ATCC catalogue number CRL-1596) were grown in 1 L Spinner flasks (Integra Biosciences, #182101) in suspension in RPMI 1640 medium (Invitrogen, #21875-034) supplemented with 10% Fetal Bovine Serum (Invitrogen) at a density between 0.15×10^6 and 1.2×10^6 cells/mL. Cells were harvested by centrifugation, washed once with 1×PBS buffer (Invitrogen, #14190-094) and cell pellets were frozen in liquid nitrogen and subsequently stored at −80° C. Cells were homogenized in a Potter S homogenizer in lysis buffer: 50 mM Tris-HCl, 0.8% NP40, 5% glycerol, 150 mM NaCl, 1.5 mM MgCl2, 25 mM NaF, 1 mM sodium vanadate, 1 mM DTT, pH 7.5. One complete EDTA-free tablet (protease inhibitor cocktail, Roche Diagnostics, 1873580) per 25 mL buffer was added. The material was dounced 10 times using a mechanized POTTER S, transferred to 50 mL falcon tubes, incubated for 30 minutes on ice and spun down for 10 minutes at 20,000 g at 4° C. (10,000 rpm in Sorvall SLA600, precooled). The supernatant was transferred to an ultracentrifuge (UZ)-polycarbonate tube (Beckmann, 355654) and spun for 1 hour at 100.000 g at 4° C. (33.500 rpm in Ti50.2, precooled). The supernatant was transferred again to a fresh 50 mL falcon tube, the protein concentration was determined by a Bradford assay (BioRad) and samples containing 50 mg of protein per aliquot were prepared. The samples were immediately used for experiments or frozen in liquid nitrogen and stored frozen at −80° C.
(§5) Cell lysate (approximately 50 mg protein per plate) was thawed in a water bath at room temperature and then stored on ice. To the thawed cell lysate 1×DP 0.8% NP40 buffer containing protease inhibitors (1 tablet for 25 mL buffer; EDTA-free protease inhibitor cocktail; Roche Diagnostics 1873580) was added in order to reach a final protein concentration of 10 mg/mL total protein. The diluted cell lysate was stored on ice. Mixed Molt4/Ramos lysate was prepared by combining one volume of Molt4 lysate and two volumes of Ramos lysate (ratio 1:2).
(§6) Plates were sealed and incubated for 3 hours in a cold room on a plate shaker (Heidolph tiramax 1000) at 750 rpm. Afterwards the plate was washed 3 times with 230 μL washing buffer (1×DP 0.4% NP40). The filter plate was placed on top of a collection plate (Greiner bio-one, PP-microplate 96 well V-shape, 65120) and the beads were then eluted with 20 μL of sample buffer (100 mM Tris, pH 7.4, 4% SDS, 0.00025% bromophenol blue, 20% glycerol, 50 mM DTT). […]

[2] = biological target: T2, JAK2 (Homo sapiens, UniProt O60674); assay: Kinobeads assay, JAK2 (competition binding in cell lysate, dot blot detection); conditions: mixed Molt4/Ramos lysate
T2 construct: endogenous in cells; host or cells: Molt4 (ATCC CRL-1582) and Ramos (ATCC CRL-1596) cell lysate; mixed Molt4/Ramos lysate 1:2
Method: as §1, §2, §3, §4, §5, §6

T2 sequence (O60674 whole entry): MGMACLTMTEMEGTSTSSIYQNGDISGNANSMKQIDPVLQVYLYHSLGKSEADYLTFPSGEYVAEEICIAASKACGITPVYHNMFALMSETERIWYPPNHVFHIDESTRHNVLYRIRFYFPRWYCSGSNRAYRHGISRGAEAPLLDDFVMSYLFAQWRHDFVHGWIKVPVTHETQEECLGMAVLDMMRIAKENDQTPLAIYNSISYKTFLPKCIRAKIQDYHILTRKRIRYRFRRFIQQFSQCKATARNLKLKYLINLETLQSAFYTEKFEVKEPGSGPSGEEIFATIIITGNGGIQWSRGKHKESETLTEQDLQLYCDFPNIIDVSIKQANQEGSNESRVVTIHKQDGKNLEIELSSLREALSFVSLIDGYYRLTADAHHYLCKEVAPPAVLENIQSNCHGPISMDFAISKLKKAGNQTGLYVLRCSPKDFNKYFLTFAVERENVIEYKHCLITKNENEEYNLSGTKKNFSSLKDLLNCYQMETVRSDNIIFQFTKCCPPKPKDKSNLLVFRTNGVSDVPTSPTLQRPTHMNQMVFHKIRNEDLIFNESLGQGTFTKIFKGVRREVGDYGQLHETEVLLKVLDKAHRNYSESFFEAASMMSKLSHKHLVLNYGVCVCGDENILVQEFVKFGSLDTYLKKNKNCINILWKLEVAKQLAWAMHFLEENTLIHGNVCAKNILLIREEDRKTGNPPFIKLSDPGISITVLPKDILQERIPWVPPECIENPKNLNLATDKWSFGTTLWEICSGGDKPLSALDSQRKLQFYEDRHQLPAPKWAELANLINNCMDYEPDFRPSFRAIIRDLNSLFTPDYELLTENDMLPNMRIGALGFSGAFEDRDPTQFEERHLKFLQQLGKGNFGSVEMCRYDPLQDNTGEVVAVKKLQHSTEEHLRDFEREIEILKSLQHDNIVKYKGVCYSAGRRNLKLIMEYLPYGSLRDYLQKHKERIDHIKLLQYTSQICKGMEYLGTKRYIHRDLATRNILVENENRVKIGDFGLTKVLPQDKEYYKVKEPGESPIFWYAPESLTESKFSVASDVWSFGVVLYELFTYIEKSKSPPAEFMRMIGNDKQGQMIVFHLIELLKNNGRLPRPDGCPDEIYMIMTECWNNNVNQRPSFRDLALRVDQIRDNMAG

Compound	IC50 [1] [nM]	IC50 [2] [nM]
Cn1cc(Nc2ncc3cnn(CC4CCCN(CC#N)C4)c3n2)cn1 (stereo not shown) [Example 54, 2-(3-((6-((1-methyl-1H-pyrazol-4-yl)amino)-1H-pyrazolo[3,4-d]pyrimidin-1-yl)methyl)piperidin-1-yl)acetonitrile]	< 100	1000 to 10000
Cn1cc(Nc2ncc3cnn(CC4CCN(S(=O)(=O)C5CC5)C4)c3n2)cn1 (stereo not shown) [Example 43, 1-((1-(cyclopropylsulfonyl)pyrrolidin-3-yl)methyl)-N-(1-methyl-1H-pyrazol-4-yl)-1H-pyrazolo[3,4-d]pyrimidin-6-amine]	100 to 1000	> 10000
CC1CCCC(n2ncc3cnc(Nc4cnn(C)c4)nc32)C1 (stereo not shown) [Example 13, N-(1-methyl-1H-pyrazol-4-yl)-1-(3-methylcyclohexyl)-1H-pyrazolo[3,4-d]pyrimidin-6-amine]	100 to 1000	> 10000
Cn1cc(Nc2ncc3cnn(CC4CCCN(C(=O)OCCF)C4)c3n2)cn1 (stereo not shown) [Example 44, 2-fluoroethyl 3-((6-((1-methyl-1H-pyrazol-4-yl)amino)-1H-pyrazolo[3,4-d]pyrimidin-1-yl)methyl)piperidine-1-carboxylate]	100 to 1000	> 10000
CCC(C1CCCCC1)n1ncc2cnc(Nc3cnn(C)c3)nc21 (stereo not shown) [Example 18, 1-(1-Cyclohexylpropyl)-N-(1-methyl-M-pyrazol-4-yl)-1H-pyrazolo[3,4-c]pyrimidin-6-amine]	100 to 1000	> 10000
Cn1cc(Nc2ncc3cnn(C4CCOCC4)c3n2)cn1 [Example 9, N-(1-methyl-1H-pyrazol-4-yl)-1-(tetrahydro-2H-pyran-4-yl)-1H-pyrazolo[3,4-d]pyrimidin-6-amine]	100 to 1000	> 10000
CN(C)CC(=O)N1CCCC(Cn2ncc3cnc(Nc4cnn(C)c4)nc32)C1 (stereo not shown) [Example 29, 2-(dimethylamino)-1-(3-((6-((1-methyl-1H-pyrazol-4-yl)amino)-1H-pyrazolo[3,4-d]pyrimidin-1-yl)methyl)piperidin-1-yl)ethanone]	100 to 1000	> 10000
Cn1cc(Nc2ncc3cnn(CC4CCN(CCC#N)C4)c3n2)cn1 (stereo not shown) [Example 53, 3-(3-((6-((1-methyl-1H-pyrazol-4-yl)amino)-1H-pyrazolo[3,4-d]pyrimidin-1-yl)methyl)pyrrolidin-1-yl)propanenitrile]	< 100	1000 to 10000
CCN1CCCC(Cn2ncc3cnc(Nc4cnn(C)c4)nc32)C1 (stereo not shown) [Example 55, 1-((1-ethylpiperidin-3-yl)methyl)-N-(1-methyl-1H-pyrazol-4-yl)-1H-pyrazolo[3,4-d]pyrimidin-6-amine]	< 100	1000 to 10000
CC(C)S(=O)(=O)N1CCCC(Cn2ncc3cnc(Nc4cnn(CC(F)F)c4)nc32)C1 (stereo not shown) [Example 61, N-(1-(2,2-difluoroethyl)-1H-pyrazol-4-yl)-1-((1-(isopropylsulfonyl)piperidin-3-yl)methyl)-1H-pyrazolo[3,4-d]pyrimidin-6-amine]	< 100	1000 to 10000
Cn1cc(Nc2ncc3cnn(CC4CCNC4)c3n2)cn1 (stereo not shown) [Example 40, N-(1-methyl-1H-pyrazol-4-yl)-1-(pyrrolidin-3-ylmethyl)-1H-pyrazolo[3,4-d]pyrimidin-6-amine]	100 to 1000	1000 to 10000
Cn1cc(Nc2ncc3cnn(CC4CCCN(S(C)(=O)=O)C4)c3n2)cn1 (stereo not shown) [Example 1]	< 100	1000 to 10000
COC(=O)N1CCCC(Cn2ncc3cnc(Nc4cnn(C)c4)nc32)C1 (stereo not shown) [Example 38, methyl 3-((6-((1-methyl-1H-pyrazol-4-yl)amino)-1H-pyrazolo[3,4-d]pyrimidin-1-yl)methyl)piperidine-1-carboxylate]	100 to 1000	> 10000
COCC(=O)N1CCCC(Cn2ncc3cnc(Nc4cnn(C)c4)nc32)C1 (stereo not shown) [Example 21, 2-methoxy-1-(3-((6-((1-methyl-1H-pyrazol-4-yl)amino)-1H-pyrazolo[3,4-d]pyrimidin-1-yl)methyl)piperidin-1-yl)ethanone]	< 100	> 10000
